{"source": "patent US20130303557A1", "about": "“PHARMACEUTICAL COMPOSITIONS AND METHODS OF TREATING DRY EYE DISORDERS” (PFIZER INC., priority 2010, published 2013)", "type_in_all_cases": "in vivo", "key": {"MRL/Ipr dry eye mice [1]": {"system": "MRL/Ipr dry eye mice", "assay": "Dose response of CP690550 on tear production in MRL/Ipr mice (Formulations 1, 3 and 4)", "settings": "at 2 days after treatment, all comparisons, FIGS. 4-6", "method": "As with Example 4 above, vehicle-treated normal C57black/6 and MRL/Ipr dry eye mice (5-10 mice/group) were used as normal control and dry eye control, respectively. […] Treatment for Formulation 1 was carried for two weeks, at […], twice a day."}, "dry-induced C57 mice": {"system": "dry-induced C57 mice", "assay": "Induced dry eye mouse model (scopolamine plus fans), tear production", "settings": "at 2 days of treatment; 1 μl once a day, Formulations 3 and 5; FIGS. 7 and 8", "method": "An injection was prepared comprising 2.5 mg/ml scopolamine (sigma) in injectable saline (1-1.5 ml per animal). In normal C57 mice (200-250) ul of scopolamine was injected four times every 2.5 hrs in alternating hind quarters. The mice were placed in special cages (with holes in front and back) and placed in a hood. Fans were placed in front of each cage, and turned on for 16 hours over night for five days. Measurements were taken daily.\nAs with Examples 4 and 5 above, animals were treated with drug or vehicle at 1 μl, once a day for 2 weeks."}, "MRL/Ipr dry eye mice [2]": {"system": "MRL/Ipr dry eye mice", "assay": "Comparative tear production, CP-690550 versus Restasis, in MRL/Ipr dry eye mice (phenol red thread)", "settings": "CP-690550 0.01% vs Restasis (cyclosporine 0.05%), 2 μl twice a day for 30 days; FIG. 3", "method": "Tear measurement was done using phenol red impregnated thread (Quick Zone®) and baseline measurement was performed before each drug application. Drugs or vehicles were applied at 2 μl, two times a day.\nVehicle-treated normal C57black/6 and MRL/Ipr dry eye mice were used as normal control and dry eye control, respectively.\nControl animals included normal C57Black/6 mice, and MRL/Ipr mice, treated with PBS vehicle and MRL/Ipr mice treated with Refresh Endura® (vehicle for Restasis) (5-10 mice/group)."}}}
{"smiles": "C[C@@H]1CCN(C(=O)CC#N)C[C@@H]1N(C)c1ncnc2[nH]ccc12", "note": "[CP690550, 3-{(3R,4R)-4-Methyl-3-[methyl-(7H-pyrrolo[2,3-d]pyrimidin-4-yl)-amino]-piperidin-1-yl}-3-oxo-propionitrile]", "values": [{"measurement": "improvement in tear production", "setting": "MRL/Ipr dry eye mice [1]", "value": "significant improvement in tear production"}, {"measurement": "increase in tear production", "setting": "dry-induced C57 mice", "value": "significant increase in tear production"}, {"measurement": "response rate as compared to Restasis", "setting": "MRL/Ipr dry eye mice [2]", "value": "much faster response rate as compared to Restasis®"}, {"measurement": "volume of tear production compared with Restasis", "setting": "MRL/Ipr dry eye mice [2]", "value": "significant improvement in the volume of tear production over Restasis®"}]}
